# Test results reported in patent US11833129B2, “Thiophene compound for treatment of exfoliating glaucoma” (Avoscience, LLC, priority 2013, dated 2023).
# Experiments:
# [1] = test system: silkworm larvae, B. mori; details: concentrations in the diet up to 300 μg/g; cited from earlier work
# [2] = test system: MDA-MB231 invasive breast tumor cells; experiment: Membrane Invasion Culture System (MICS) chamber tumor cell migration; format: cell-based, human; details: 5 or 10 μl/10 ml Formula I(n), 24 hours, vs untreated and methanol controls
# Procedure: FIG. 1A is graph of cell migration using the breast cancer cell line MDA-MB231 for cells treated with 0 μl/10 ml, 5 μl/10 ml and 10 μl/10 ml Formula I(n). The effect of Formula I(n) on the migration of MDA-MB231 invasive breast tumor cells was tested using the Membrane Invasion Culture System (MICS) chamber. The Membrane Invasion Culture System (MICS) chamber was assembled with Crosstex 10 μm polycarbonate membrane pre-soaked in gelatin for 12 hours. The lower wells were fully loaded with DMEM supplemented with 10% FBS and 0, 5, 10 μl/10 ml Formula I(n) diluted in 0-20 μl/10 ml methanol. The upper wells were loaded with 1 ml serum-free phenol-red-free media and corresponding Formula I(n)/methanol solution. 100,000 cells/well were loaded and the chamber was incubated at 37° C. for 24 hours. […] The membrane was rinsed in water, placed onto a microscope slide pre-treated with immersion oil, covered with a coverslip and cells were counted under a light microscope. Each sample was measured in triplicate. […]
# The Membrane Invasion Culture System (MICS) chamber was assembled with Crosstex 10 μm polycarbonate membrane pre-soaked in gelatin for 12 hours. […] The membrane was rinsed in water, placed onto a microscope slide pre-treated with immersion oil, covered with a coverslip and cells were counted under a light microscope. Each sample was measured in triplicate.
# [3] = test system: Hs578T invasive breast tumor cells; experiment: as above; format: cell-based, human; details: 5 or 10 μl/10 ml Formula I(n), 24 hours, vs untreated and methanol controls
# [4] = test system: foreskin fibroblasts (Clonetics); experiment: in vitro scratch assay, fibroblast migration; format: cell-based
# Procedure: FIG. 2A is a micrograph of an in vitro scratch assay using fibroblasts showing the migration of fibroblasts at 0 hours without treatment of Formula I(n). Confluent cultures of foreskin fibroblasts (Clonetics) were scratched with the tip of a 200 μl pipet tip, rinsed once with PBS and media was changed to serum free media containing 0 μl/10 ml Formula I(n). Pictures were taken at the indicated time (0, 12, or 24 hours) following scratching and the distance between the migrating lips were measured in pixels. FIG. 2B is a micrograph of an in vitro scratch assay using fibroblasts showing the migration of fibroblasts at 0 hours upon treatment with 5 μl/10 ml Formula I(n). […]
# FIG. 3 is a graph of the distance between the migrating lips (as measured in pixels) vs. the time (hours) after administration of Formula I(n). […]
# Confluent cultures of foreskin fibroblasts (Clonetics) were scratched with the tip of a 200 μl pipet tip, rinsed once with PBS and media was changed to serum free media containing 0 (FIG. 2A, 2D, 2G) 5 (FIG. 2B, 2E, 2H) or 10 (FIG. 2C, 2F) μl/10 ml Formula I(n). Pictures were taken at 0 (FIG. 2A, 2B, 2C), 12 (FIG. 2D, 2E, 2F) or 24 (FIG. 2G, 2H) hours following scratching and the distance between the migrating lips were measured in pixels. FIG. 3 is a graph of the distance between the migrating lips (as measured in pixels) vs. the time (hours) after administration of Formula I(n).
# [5] = test system: preconfluent neonatal foreskin fibroblast cells; experiment: cytoskeletal reorganization, phalloidin/propidium iodide staining; format: cell-based; details: pre-confluent fibroblasts; 5 or 10 μl Formula I(n); 24 hours; compared to controls
# Procedure: (§1) FIG. 4A is a micrograph of preconfluent neonatal foreskin fibroblast cells that have not been treated with Formula I(n). After 24 hours of mock treatment, cells were stained with phalloidin (actin-green) and propidium iodide (nuclei-red). FIG. 4B is a micrograph of preconfluent neonatal foreskin fibroblast cells that have been treated with 5 μl/10 ml Formula I(n). After 24 hours of treatment, cells were stained with phalloidin (actin-green) and propidium iodide (nuclei-red). FIG. 4C is a micrograph of preconfluent neonatal foreskin fibroblast cells that have been treated with 10 μl/10 ml Formula I(n). After 24 hours of treatment, cells were stained with phalloidin (actin-green) and propidium iodide (nuclei-red). FIG. 4D is a micrograph of confluent MDA-MB231 breast cancer cells that have not been treated with Formula I(n). After 24 hours of mock treatment, cells were stained with phalloidin (actin-green) and propidium iodide (nuclei-red). FIG. 4E is a micrograph of confluent MDA-MB231 breast cancer cells that have been treated with 5 μl/10 ml Formula I(n). After 24 hours of treatment, cells were stained with phalloidin (actin-green) and propidium iodide (nuclei-red). FIG. 4F is a micrograph of confluent MDA-MB231 breast cancer cells that have been treated with 10 μl/10 ml Formula I(n). After 24 hours of treatment, cells were stained with phalloidin (actin-green) and propidium iodide (nuclei-red). FIG. 4G is a micrograph of preconfluent MDA-MB231 breast cancer cells that have not been treated with Formula I(n). After 24 hours of mock treatment, cells were stained with phalloidin (actin-green) and propidium iodide (nuclei-red). FIG. 4H is a micrograph of preconfluent MDA-MB231 breast cancer cells that have been treated with 5 μl/10 ml Formula I(n). After 24 hours of treatment, cells were stained with phalloidin (actin-green) and propidium iodide (nuclei-red).
# Formula I(n) was next analyzed for its ability to induce cytoskeletal reorganization. […]
# [6] = test system: MDA-MB231 breast cancer cells; experiment: cytoskeletal reorganization and cell density, phalloidin/propidium iodide staining; format: cell-based, human; details: 24 hours
# Procedure: as §1, with “After 24 hours of treatment, cells were stained with phalloidin (actin-green) and propidium iodide (nuclei-red). FIG. 4G is a micrograph of preconfluent MDA-MB231 breast cancer cells that have not been treated with Formula I(n). After 24 hours of mock treatment, cells were stained with phalloidin (actin-green) and propidium iodide (nuclei-red). FIG. 4H is a micrograph of preconfluent MDA-MB231 breast cancer cells that have been treated with 5 μl/10 ml Formula I(n). After 24 hours of treatment, cells were stained with phalloidin (actin-green) and propidium iodide (nuclei-red).” left out
# [7] = test system: focal adhesion kinase (FAK) [Tyr576] phosphorylation; experiment: western blot of FAK[Tyr576] phosphorylation in Hs578T cells; format: cell-based, human; details: 5 or 10 μl Formula I(n)/10 ml media, 3 days
# Description: FIG. 5 is a western blot showing the inhibition of the phosphorylation of focal adhesion kinase (FAK) in Hs578T cells treated with Formula I(n). Antibodies that detect the FAK protein that has been phosphorylated on pTyr576 were used at a dilution of 1:1000 (rabbit anti-FAK[pTyr576] from Biosource Inc., Camarillo, Calif., USA).
# It has previously been shown that reduced migratory ability of various invasive breast tumor cells, including MDA-MB231, Hs578T (Payne S L, Fogelgren B, Hess A R, Seftor E A, Fong S F T, Csiszar K, Hendrix M J C, and Kirschmann D A. Lysyl oxidase regulates breast cancer cell migration and adhesion through a hydrogen peroxide-mediated mechanism. Cancer Res. 65:11429-36, 2005), and astrocytoma cells (Laczko R, Szauter K M, Jansen M K, Hollosi P, Muranyi M, Molnar J, Fong K S K, Hinek A, Csiszar K. Active lysyl oxidase (LOX) correlates with FAK/paxillin activation and migration in invasive astrocytes. Neuropathol Appl Neurobiol. 33:631-43, 2007) was due to reduced activation of Focal Adhesion Kinase (FAK) and diminished SRC and/or Paxillin signaling. In order to determine the status of FAK activation in Formula I(n) treated cells, the phosphorylation status of FAK[Tyr576] in Hs578T cells treated with 5 and 10 μl Formula I(n) was analyzed.
# In these experiments, Hs578T cells were cultured in standard DMEM, 1× Antibiotics and 10% FBS. […]
# [8] = test system: Bacillus subtilis (Ehrenberg) Cohn; details: cited from earlier work
# [9] = test system: Staphylococcus aureus Rosenbach; details: cited from earlier work
smiles,measurement,setting,value
"CCCCC/C=C\C/C=C\CCCCCCCc1ccco1 [2-(8Z, 11Z-heptadecadienyl)furan, 2-(8Z,11Z-heptadecadienyl)furan]",activity against silkworm larvae,[1],no activity
CCCCC/C=C\C/C=C\CCCCCCCc1ccco1 [Formula I(n)],tumor cell migration,[2],significantly inhibited
same,tumor cell migration,[3],significantly inhibited
same,migration of fibroblasts (distance between the migrating lips),"[4]; 5 or 10 μl/10 ml Formula I(n), 12 and 24 hours after scratching, serum free media",reduced migration
same,migration of fibroblasts (distance between the migrating lips),[4]; higher Formula I(n) concentration (10 μl/10 ml),almost completely diminished
same,filopodia,[5],numerous filopodia
same,staining at adhesion sites,[5],reduced staining
same,staining intensity of the actin cytoskeleton,[5],concentration dependent increase
same,tumor cell morphology,[6]; 5 or 10 μl Formula I(n),"elongated, spindle shaped"
same,cell densities (tumor cell proliferation),"[6]; both Formula I(n) concentrations, both stages of cell confluency",significantly reduced
same,FAK[Tyr576] phosphorylation,[7],concentration dependent decrease
C=CCCCCCCCCCCCc1ccco1 [2-(trideca-12-enyl)furan],growth of bacteria,[8],inhibited growth
same,growth of bacteria,[9],inhibited growth
